Reference: the supplement of paper PMC10307832

Tests used:
Experiment in all cases: relative viability (nuclei count vs DMSO), 5 days (fraction); higher = more cells survive
LCLC-97TM1 = tested on: LCLC-97TM1
Summary of the method: (§1)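 After 5 days of treatment, lung cancer cells in 1536-well plates were fixed and stained in a single step (final 0.05% Triton X-100, 1% formaldehyde, 1 ug/ml Hoechst) and their nuclei counted on 4× images. Treatment had been applied by pin tool the day after seeding as one drug alone or as a fixed anchor-drug dose with five library-drug doses (not always all listed) in √10 steps. Relative viability is the nuclei count of treated wells divided by that of vehicle wells, and values are medians of duplicate plates.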

NCI-H650 = tested on: NCI-H650
Summary of the method: as §1

201T = tested on: 201T
Summary of the method: as §1

NCI-H2087 = tested on: NCI-H2087
Summary of the method: as §1

NCI-H2405 = tested on: NCI-H2405
Summary of the method: as §1

PC-14 = tested on: PC-14
Summary of the method: as §1

NCI-H661 = tested on: NCI-H661
Summary of the method: as §1

HCC-827 = tested on: HCC-827
Summary of the method: as §1

NCI-H1666 = tested on: NCI-H1666
Summary of the method: as §1

NCI-H520 = tested on: NCI-H520
Summary of the method: as §1

COR-L 105 = tested on: COR-L 105
Summary of the method: as §1

NCI-H647 = tested on: NCI-H647
Summary of the method: as §1

EPLC-272H = tested on: EPLC-272H
Summary of the method: as §1

LC-2-ad = tested on: LC-2-ad
Summary of the method: as §1

NCI-H2347 = tested on: NCI-H2347
Summary of the method: as §1

ChaGo-K-1 = tested on: ChaGo-K-1
Summary of the method: as §1

NCI-H1915 = tested on: NCI-H1915
Summary of the method: as §1

HCC-78 = tested on: HCC-78
Summary of the method: as §1

RERF-LC-KJ = tested on: RERF-LC-KJ
Summary of the method: as §1

NCI-H23 = tested on: NCI-H23
Summary of the method: as §1

NCI-H2126 = tested on: NCI-H2126
Summary of the method: as §1

H3255 = tested on: H3255
Summary of the method: as §1

## COc1cc2nccc(Oc3ccc(NC(=O)Nc4cc(C)on4)c(Cl)c3)c2cc1OC [Tivozanib] + O=C(CCCCCCC(=O)Nc1ccccc1)NO [Vorinostat] (partner 1 µM)
LCLC-97TM1; first compound 0.005 µM
  relative viability: 0.619
LCLC-97TM1; first compound 0.01581 µM
  relative viability: 0.69
LCLC-97TM1; first compound 0.05 µM
  relative viability: 0.686
LCLC-97TM1; first compound 0.1581 µM
  relative viability: 0.732
LCLC-97TM1; first compound 0.5 µM
  relative viability: 0.323
NCI-H650; first compound 0.005 µM
  relative viability: 0.348
NCI-H650; first compound 0.01581 µM
  relative viability: 0.379
NCI-H650; first compound 0.05 µM
  relative viability: 0.414
NCI-H650; first compound 0.1581 µM
  relative viability: 0.29
NCI-H650; first compound 0.5 µM
  relative viability: 0.296
201T; first compound 0.005 µM
  relative viability: 0.983
201T; first compound 0.01581 µM
  relative viability: 0.99
201T; first compound 0.05 µM
  relative viability: 1
201T; first compound 0.1581 µM
  relative viability: 0.899
201T; first compound 0.5 µM
  relative viability: 0.974
NCI-H2087; first compound 0.005 µM
  relative viability: 0.917
NCI-H2087; first compound 0.01581 µM
  relative viability: 0.685
NCI-H2087; first compound 0.05 µM
  relative viability: 0.663
NCI-H2087; first compound 0.1581 µM
  relative viability: 0.698
NCI-H2087; first compound 0.5 µM
  relative viability: 0.428
NCI-H2405; first compound 0.005 µM
  relative viability: 0.376
NCI-H2405; first compound 0.01581 µM
  relative viability: 1.03
NCI-H2405; first compound 0.05 µM
  relative viability: 1.05
NCI-H2405; first compound 0.1581 µM
  relative viability: 0.854
NCI-H2405; first compound 0.5 µM
  relative viability: 0.788
PC-14; first compound 0.005 µM
  relative viability: 0.728
PC-14; first compound 0.01581 µM
  relative viability: 0.792
PC-14; first compound 0.05 µM
  relative viability: 0.711
PC-14; first compound 0.1581 µM
  relative viability: 0.695
PC-14; first compound 0.5 µM
  relative viability: 0.58
NCI-H661; first compound 0.005 µM
  relative viability: 0.782
NCI-H661; first compound 0.01581 µM
  relative viability: 0.776
NCI-H661; first compound 0.05 µM
  relative viability: 0.789
NCI-H661; first compound 0.1581 µM
  relative viability: 0.8
NCI-H661; first compound 0.5 µM
  relative viability: 0.802
HCC-827; first compound 0.005 µM
  relative viability: 0.69
HCC-827; first compound 0.01581 µM
  relative viability: 0.851
HCC-827; first compound 0.05 µM
  relative viability: 0.879
HCC-827; first compound 0.1581 µM
  relative viability: 0.854
HCC-827; first compound 0.5 µM
  relative viability: 0.864
NCI-H1666; first compound 0.005 µM
  relative viability: 1.07
NCI-H1666; first compound 0.01581 µM
  relative viability: 1.01
NCI-H1666; first compound 0.05 µM
  relative viability: 1.11
NCI-H1666; first compound 0.1581 µM
  relative viability: 1.09
NCI-H1666; first compound 0.5 µM
  relative viability: 0.978
NCI-H520; first compound 0.005 µM
  relative viability: 0.729
NCI-H520; first compound 0.01581 µM
  relative viability: 0.754
NCI-H520; first compound 0.05 µM
  relative viability: 0.691
NCI-H520; first compound 0.1581 µM
  relative viability: 0.675
NCI-H520; first compound 0.5 µM
  relative viability: 0.607
COR-L 105; first compound 0.005 µM
  relative viability: 0.696
COR-L 105; first compound 0.01581 µM
  relative viability: 0.743
COR-L 105; first compound 0.05 µM
  relative viability: 0.801
COR-L 105; first compound 0.1581 µM
  relative viability: 0.821
COR-L 105; first compound 0.5 µM
  relative viability: 0.794
NCI-H647; first compound 0.005 µM
  relative viability: 0.555
NCI-H647; first compound 0.01581 µM
  relative viability: 0.654
NCI-H647; first compound 0.05 µM
  relative viability: 0.692
NCI-H647; first compound 0.1581 µM
  relative viability: 0.631
NCI-H647; first compound 0.5 µM
  relative viability: 0.48
EPLC-272H; first compound 0.005 µM
  relative viability: 0.452
EPLC-272H; first compound 0.01581 µM
  relative viability: 0.617
EPLC-272H; first compound 0.05 µM
  relative viability: 0.385
EPLC-272H; first compound 0.1581 µM
  relative viability: 0.435
EPLC-272H; first compound 0.5 µM
  relative viability: 0.281
LC-2-ad; first compound 0.005 µM
  relative viability: 0.704
LC-2-ad; first compound 0.01581 µM
  relative viability: 0.734
LC-2-ad; first compound 0.05 µM
  relative viability: 0.694
LC-2-ad; first compound 0.1581 µM
  relative viability: 0.592
LC-2-ad; first compound 0.5 µM
  relative viability: 0.34
NCI-H2347; first compound 0.005 µM
  relative viability: 0.612
NCI-H2347; first compound 0.01581 µM
  relative viability: 0.577
NCI-H2347; first compound 0.05 µM
  relative viability: 0.61
NCI-H2347; first compound 0.1581 µM
  relative viability: 0.797
NCI-H2347; first compound 0.5 µM
  relative viability: 0.517
ChaGo-K-1; first compound 0.005 µM
  relative viability: 0.692
ChaGo-K-1; first compound 0.01581 µM
  relative viability: 0.727
ChaGo-K-1; first compound 0.05 µM
  relative viability: 0.773
ChaGo-K-1; first compound 0.1581 µM
  relative viability: 0.756
ChaGo-K-1; first compound 0.5 µM
  relative viability: 0.63
NCI-H1915; first compound 0.005 µM
  relative viability: 0.488
NCI-H1915; first compound 0.01581 µM
  relative viability: 0.503
NCI-H1915; first compound 0.05 µM
  relative viability: 0.567
NCI-H1915; first compound 0.1581 µM
  relative viability: 0.391
NCI-H1915; first compound 0.5 µM
  relative viability: 0.399
HCC-78; first compound 0.005 µM
  relative viability: 0.408
HCC-78; first compound 0.01581 µM
  relative viability: 0.47
HCC-78; first compound 0.05 µM
  relative viability: 0.412
HCC-78; first compound 0.1581 µM
  relative viability: 0.467
HCC-78; first compound 0.5 µM
  relative viability: 0.363
RERF-LC-KJ; first compound 0.005 µM
  relative viability: 0.621
RERF-LC-KJ; first compound 0.01581 µM
  relative viability: 0.616
RERF-LC-KJ; first compound 0.05 µM
  relative viability: 0.734
RERF-LC-KJ; first compound 0.1581 µM
  relative viability: 0.58
RERF-LC-KJ; first compound 0.5 µM
  relative viability: 0.593
NCI-H23; first compound 0.005 µM
  relative viability: 0.522
NCI-H23; first compound 0.01581 µM
  relative viability: 0.484
NCI-H23; first compound 0.05 µM
  relative viability: 0.6
NCI-H23; first compound 0.5 µM
  relative viability: 0.375
NCI-H2126; first compound 0.005 µM
  relative viability: 0.795
NCI-H2126; first compound 0.01581 µM
  relative viability: 0.822
NCI-H2126; first compound 0.05 µM
  relative viability: 0.82
NCI-H2126; first compound 0.1581 µM
  relative viability: 0.482
NCI-H2126; first compound 0.5 µM
  relative viability: 0.729
H3255; first compound 0.005 µM
  relative viability: 0.633
H3255; first compound 0.01581 µM
  relative viability: 0.794
H3255; first compound 0.05 µM
  relative viability: 0.885
H3255; first compound 0.1581 µM
  relative viability: 0.888
H3255; first compound 0.5 µM
  relative viability: 0.611
